Laboratory results taken from the OPERA property sets (Mansouri et al. 2018).
Where a SMILES comes first, the peptide text is derived from it.

First: CCN(CC)NC(=O)NS(=O)(=O)c1ccc(C)cc1
Second: CCN(CC)CCC(=O)Nc1ccc(N)cc1
The logP of the first is lower: 0.47 for the first, 0.8 for the second.

Compared with CC1CC(=O)NN=C1c1ccc(-n2ccnc2)cc1 (stereo not drawn), O=c1cc(-c2ccccc2)[nH]n1-c1ccc(Cl)cc1 is higher in logP: 1.29 for the first, 2.6 for the second.

Going from CC(=O)NCCC(=O)NCc1c(O)c(=O)cc(C)n1C to CC(=O)NN=Cc1c(CO)ccc(C)c1O, the logP rises from -1.7 to 1.71.

First: CC=C(C)C1(C)CC(O)=C(C(CCC)=NOCC)C(=O)O1 (stereo not drawn)
Second: CCCC(=NOCC)C1=C(O)CC2(CCC(CC(C)(C)C)CC2)OC1=O (stereo not drawn)
The logP of the first is lower: 3.4 for the first, 5.3 for the second.

First: CCC(C)NC(=O)NN (stereo not drawn)
Second: CSCCC(NC(=O)C(N)CC(C)C)C(=O)O (stereo not drawn) (H-Leu-Met-OH; configuration not given here)
The logP of the first is higher: -0.84 for the first, -1.87 for the second.

Going from OCCNc1ncnc2c1ncn2C1OC(CO)C(O)C1O (stereo not drawn) to OCCCCCCNc1ncnc2c1ncn2C1OC(CO)C(O)C1O (stereo not drawn), the logP rises from -1.13 to 0.23.

Going from Cc1ccc(CO)c(C=NNC(=O)c2ccc([N+](=O)[O-])cc2)c1O to CC(=O)Nc1cc(NCC(C)O)c(Cl)cc1N=Nc1ccc([N+](=O)[O-])cc1Cl (stereo not drawn), the logP rises from 3.03 to 4.

O=C(O)CCCCON=C(c1ccnnc1)c1cccc(C(F)(F)F)c1 and O=C(O)CCCCON=C(c1cccc(C(F)(F)F)c1)c1cccnn1 are within 0.2 log units of each other in logP: 2.99 for the first, 2.8 for the second.

Going from CN(C1=NC(=O)N(c2ccc(Cl)cc2)C1)C1CCCCC1 to O=c1cc(-c2ccccc2)on1-c1ccc(Cl)cc1, the logP rises from 2.7 to 4.1.

Compared with CC(C)(C)[N+]([O-])=Cc1ccc(C(=O)O)cc1, CC(C)(C)[N+]([O-])=Cc1ccc(O)cc1 is lower in logP: 1.1 for the first, 0.6 for the second.

Going from COC(=O)Sc1ncc(C=C(C(=O)OC)C(=O)OC)n1C to COC(=O)C(C)=CC1C(C(=O)OCc2cccc(COc3ccccc3)c2)C1(C)C (stereo not drawn), the logP rises from 0.49 to 6.06.

First: CCc1ccc2c(c1)OCCOCCOCCOCCOCCO2
Second: CNC(C)Cc1ccc2c(c1)OCO2 (stereo not drawn)
The logP of the first is lower: 0.98 for the first, 2.15 for the second.

First: O=C(NCCCCCOCCCN1CCOCC1)NC12CC3CC(CC(C3)C1)C2
Second: CCCCCOc1cccc(NC(=O)OCCN2CCCCC2)c1
The logP of the first is lower: 2.7 for the first, 5.5 for the second.

Compared with O=C(O)Cc1nn(Cc2nc3cc(C(F)(F)F)ccc3s2)c(=O)c2ccccc12, COc1ccc(C2Cc3cc(C(F)(F)F)ccc3N(CCN(C)C)C(=O)C2OC(C)=O)cc1 (stereo not drawn) is higher in logP: 2.37 for the first, 4.8 for the second.

Compared with CC(N)C(=O)NCC(=O)NC(Cc1ccccc1)C(=O)NC(C(=O)NC(Cc1ccccc1)C(=O)O)C(C)C (stereo not drawn) (H-AGFVF-OH; configuration not given here), CC(C)C(NC(=O)C(Cc1ccccc1)NC(=O)CNC(=O)CNC(=O)C(N)Cc1c[nH]c2ccccc12)C(=O)O (stereo not drawn) (H-WGGFV-OH; configuration not given here) is higher in logP: -1.1 for the first, -0.44 for the second.

Going from Clc1cc(Cl)c2c(c1)Oc1c(ccc(Cl)c1Cl)O2 to Clc1cc2c(cc1Cl)Oc1c(Cl)c(Cl)cc(Cl)c1O2, the logP falls from 6.43 to 6.2.

First: Clc1cc2c(oc3c(Cl)c(Cl)ccc32)c(Cl)c1Cl
Second: Cc1c(C)c2ccc3occc3c2oc1=O
The logP of the first is higher: 6.47 for the first, 2.9 for the second.

First: NC(=O)C1CN(CC(=O)Nc2c(Cl)cccc2Cl)CCN1CCCC(c1ccc(F)cc1)c1ccc(F)cc1 (stereo not drawn)
Second: NC(Cc1ccc(O)cc1)C(=O)NCC(=O)NC(Cc1ccccc1)C(=O)O (stereo not drawn) (H-Tyr-Gly-Phe-OH; configuration not given here)
The logP of the first is higher: 5.26 for the first, -1.86 for the second.

First: CCOC(=O)CCCn1ccnc1[N+](=O)[O-]
Second: COCCCNC(=O)Cn1cnc([N+](=O)[O-])n1
The logP of the first is higher: 0.69 for the first, -0.49 for the second.

First: CC(C)C(N)C(=O)NC(Cc1ccc(O)cc1)C(=O)O (stereo not drawn) (H-Val-Tyr-OH; configuration not given here)
Second: CC(C)CC(NC(=O)C(N)Cc1ccccc1)C(=O)O (stereo not drawn) (H-Phe-Leu-OH; configuration not given here)
The logP of the first is lower: -2.52 for the first, -1.17 for the second.

Going from CCON=C(CC)C1=C(O)CC(c2cccc(Oc3ncc(C(F)(F)F)cc3F)c2)CC1=O (stereo not drawn) to COCOc1ccc(Cc2cccc(-c3c(O)c4ccc(Cl)cc4[nH]c3=O)c2)cc1, the logP rises from 4.63 to 5.24.

First: OCC1OC(Oc2ccc(F)cc2)C(O)C(O)C1O (stereo not drawn)
Second: CCc1ccc(OCC2CN=C(N)O2)cc1 (stereo not drawn)
The logP of the first is lower: -0.42 for the first, 2.27 for the second.

First: Cc1cn(C2C=CC(COP3(=O)OCc4cc(Cl)ccc4O3)O2)c(=O)[nH]c1=O (stereo not drawn)
Second: COC(=O)C(C)NP(=O)(OCC1C=CC(n2cc(C)c(=O)[nH]c2=O)O1)Oc1ccc(OC)cc1 (stereo not drawn)
The logP of the first is lower: 0.88 for the first, 1.09 for the second.

COc1ccc(C(=O)N2CCN(c3ccc4c(c3)CCC(=O)N4)CC2)cc1OC and O=C(NP(=O)(N1CC1)N1CC1)c1ccc(F)cc1 are within 0.2 log units of each other in logP: 1.04 for the first, 0.86 for the second.

First: CCCCNC1CC(OC2CC(O)(C(=O)CO)Cc3c(O)c4c(c(O)c32)C(=O)c2c(OC)cccc2C4=O)OC(C)C1O (stereo not drawn)
Second: CCCCNC1CCc2c(OC)cccc2C1C (stereo not drawn)
The logP of the first is lower: 2.12 for the first, 3.73 for the second.

Going from Nc1ccc(S(=O)(=O)Nc2cc(Br)cc3[nH]ccc23)cc1 to CC(C)(C)NCc1ccc(S(=O)(=O)c2csc(S(N)(=O)=O)c2)cc1, the logP falls from 2.77 to 1.76.

Compared with c1nc2nc[nH]c(N3CCCCCC3)c-2n1, c1ccc(CCCNc2[nH]cnc3ncnc2-3)cc1 is higher in logP: 2.53 for the first, 2.85 for the second.

First: COCc1[nH]c(-c2ccc(OCC(O)CNCCc3ccc(OC)c(OC)c3)cc2)nc1C (stereo not drawn)
Second: CCOc1cc2ncnc(Nc3ccc(F)cc3)c2cc1OCC
The logP of the first is lower: 2.8 for the first, 3.73 for the second.

Compared with COC(=O)CCSc1ccc2nc(-c3ccc(N(C)C)cc3)cn2c1, COc1ccc(C2Cc3c(C)cccc3N(CCN(C)C)C(=O)C2OC(C)=O)cc1 (stereo not drawn) is lower in logP: 3.9 for the first, 3.7 for the second.

Going from CC(=O)OC(C)(C)C1CCC2(C)CCCC(=O)C2C1 (stereo not drawn) to CC1CCCCC1NC(=O)N1C(=O)N(C)CC1O (stereo not drawn), the logP falls from 3.2 to 2.2.

First: CC(C)(C)c1cc(O)cc(C(C)(C)C)c1
Second: Cc1ccccc1C=[N+]([O-])C(C)(C)C
The logP of the first is higher: 4.64 for the first, 1.5 for the second.

Going from CCCC(=O)OCOC(=O)N(C)N=Nc1ccc(C(=O)OCC)cc1 to CCOC(=O)C(CCc1ccccc1)NC(C)C(=O)N1N=C(C(C)(C)C)SC1C(=O)O (stereo not drawn), the logP falls from 4.51 to 1.62.

Going from COc1ccccc1NC(=O)OCCN1CCCCC1 to CCCN(CCC)C1CCc2c(cccc2OC)C1 (stereo not drawn), the logP rises from 3.11 to 4.24.

CC(C)CC(N)C(=O)NC(CC(C)C)C(=O)NC(CC(C)C)C(=O)NC(C(=O)O)C(C)C (stereo not drawn) (H-LLLV-OH; configuration not given here) and CCC(C)C(NC(=O)C(CC(C)C)NC(=O)C(NC(=O)C(N)CCSC)C(C)CC)C(=O)O (stereo not drawn) (H-MILI-OH; configuration not given here) are within 0.2 log units of each other in logP: -0.51 for the first, -0.49 for the second.

Compared with CCCOc1cccc(-c2c[nH]c(SCCc3c[nH]cn3)n2)c1, Cc1ccccc1Cc1c[nH]cn1 is lower in logP: 3.7 for the first, 2.31 for the second.

First: C#CCN(N=O)C(=O)NCCCCC(NC(C)=O)C(=O)NCc1ccccc1 (stereo not drawn)
Second: CCCN(CCCCC(NC(C)=O)C(=O)NCc1ccccc1)C(=O)N(CCCl)N=O (stereo not drawn)
The logP of the first is lower: 1.64 for the first, 1.99 for the second.

First: CCN(CC)C(=O)[C@]1(c2ccccc2)C[C@@H]1CN
Second: CC(C)C(NC(=O)C(N)Cc1ccccc1)C(=O)O (stereo not drawn) (H-Phe-Val-OH; configuration not given here)
The logP of the first is higher: 2.03 for the first, -1.68 for the second.

Going from CCOC(=O)OC(C)C1=CCSC2C(NC(=O)C(=NOC)c3csc(N)n3)C(=O)N12 (stereo not drawn) to CCOC(=O)C1=C(C)NC(C)=C(C(=O)OC)C1c1cccc2c1OCCO2 (stereo not drawn), the logP rises from 0.96 to 3.57.

Going from CN(C)c1cc[n+]([O-])cc1 to CCCN(CCC)C1CCc2ccc(O)cc2C1 (stereo not drawn), the logP rises from -0.9 to 3.75.

Going from O=c1cc(CCl)oc(Cl)c1O to COc1ccc(O)c(C2=NC(C(=O)O)CS2)c1 (stereo not drawn), the logP rises from 0.95 to 1.6.

Compared with Nc1nc(N)c2c(N)cccc2n1, CCCNC(=O)c1cccc2nc(N)nc(N)c12 is higher in logP: 0.3 for the first, 0.83 for the second.

First: CN1CCCNCC1
Second: O=C(NS(=O)(=O)c1cnccc1NC1CCCCCC1)N1CCCCCC1
The logP of the first is lower: -0.4 for the first, 4.43 for the second.

Cc1ccc(CNc2ncnc3nc[nH]c23)cc1 and CCCCCNc1ncnc2nc[nH]c12 are within 0.2 log units of each other in logP: 2.66 for the first, 2.58 for the second.

Going from CC(=O)OC1C(CCl)OC(n2cc(F)c(=O)[nH]c2=O)C1OC(C)=O (stereo not drawn) to CC(C)COC(=O)n1cc(F)c(=O)[nH]c1=O, the logP rises from 0.38 to 0.87.

Compared with O=C(OC1Cc2c(O)cc(O)cc2OC1c1ccc(O)c(O)c1)c1ccc(O)c(O)c1 (stereo not drawn), O=C(Nc1ccccc1C(=O)O)c1ccccc1 is higher in logP: 2.45 for the first, 3.54 for the second.

Going from CC(C)CC(NC(=O)C(CC(C)C)NC(=O)CNC(=O)C(N)Cc1c[nH]c2ccccc12)C(=O)O (stereo not drawn) (H-WGLL-OH; configuration not given here) to CCC(C)C(N)C(=O)NC(CO)C(=O)NC(CC(C)C)C(=O)O (stereo not drawn) (H-Ile-Ser-Leu-OH; configuration not given here), the logP falls from 0.06 to -2.28.

Going from CCOC(=O)C(C)c1ccc2cc(OC)ccc2c1 (stereo not drawn) to COC(=O)C(C)NP(=O)(OCC1C=CC(n2cc(C)c(=O)[nH]c2=O)O1)Oc1ccc(C(F)(F)F)cc1 (stereo not drawn), the logP falls from 3.51 to 1.57.

Compared with Clc1ccccc1N1CCN(CCn2nnc3ccccc32)CC1, Nc1nnnn1-c1ccc(O)cc1 is lower in logP: 3.35 for the first, 0.33 for the second.

Going from CC(C)(C)NCC(O)CON=C(C1CC1)C1CC1 (stereo not drawn) to CCNC(=NC#N)NS(=O)(=O)c1cnccc1NC1CCCCCC1, the logP falls from 1.84 to 1.53.

Compared with CC1OC(OC2C(C)OC(OC3C(C)OC(OC4CCC5(C)C(CCC6C5CCC5(C)C(C7=CC(=O)OC7)C(OC=O)CC65O)C4)CC3OC=O)CC2OC=O)CC(OC=O)C1OC=O (stereo not drawn), O=C(NC1CCCCCCC1)NS(=O)(=O)c1cnccc1NC1CCCCCC1 is higher in logP: 3.16 for the first, 5.34 for the second.

First: CC1(C)SC2C(NC(=O)C(c3ccccc3)S(=O)(=O)O)C(=O)N2C1C(=O)O (stereo not drawn)
Second: CC(=O)NC(CCCN(Cc1ccccc1)C(=O)N(CCCl)N=O)C(=O)NCc1ccccc1 (stereo not drawn)
The logP of the first is lower: -0.22 for the first, 1.92 for the second.

First: COc1ccc(C2Cc3c(ccc(Br)c3OC)N(CCN(C)C)C(=O)C2C)cc1 (stereo not drawn)
Second: Cc1nc2c3c(c(C(=O)N(C)C)cn2c1C)CCC(c1ccccc1F)O3 (stereo not drawn)
The logP of the first is higher: 5.4 for the first, 3.6 for the second.

First: COCC(O)CN(C(C)=O)c1c(I)c(C(=O)NCC(O)CO)c(I)c(C(=O)NCC(O)CO)c1I (stereo not drawn)
Second: CCC(C)C(NC(=O)C(NC(=O)C(N)CC(C)C)C(C)CC)C(=O)O (stereo not drawn) (H-Leu-Ile-Ile-OH; configuration not given here)
The logP of the first is lower: -2.42 for the first, -1.11 for the second.

First: CCCCCCCCCCNCCO
Second: CCN(CC)CCCC(C)NC(=O)c1ccc([N+](=O)[O-])cc1[N+](=O)[O-] (stereo not drawn)
The logP of the first is higher: 3.62 for the first, 1.73 for the second.

Going from Fc1cncnc1 to Cc1ccc(C)c(-n2nnnc2N)c1, the logP rises from -0.03 to 1.45.

First: CCNC(=O)NS(=O)(=O)c1cnccc1NC1CCCCCCC1
Second: CC(=O)c1cccc(CNc2[nH]cnc3ncnc2-3)c1
The logP of the first is higher: 3.57 for the first, 1.73 for the second.

O=C(C=Cc1ccc([N+](=O)[O-])o1)NN=Cc1ccc([N+](=O)[O-])o1 showed a logP of 2.79.
